{
  "source": "patent US20210115268A1",
  "about": "“FUNCTIONALIZED QUATERNARY AMMONIUM HALIDES AND USE THEREOF” (Agency for Science, Technology and Research, priority 2015, published 2021)",
  "origin": "cited, not measured here",
  "settings": "glass, cotton, polyester fibers or polyurethane foams treated with the silane; after repeated washings",
  "data": [
    {"molecule": "CCCCCCCCCCCCCCCCCC[N+](C)(C)CCC[Si](OC)(OC)OC.[Cl-]", "note": "[DC 5700, (MeO)3Si(CH2)3N^+Me2C18H37Cl]", "values": [
      {"measurement": "algicidal and bactericidal properties, leaching", "value": "showed algicidal and bactericidal properties that are maintained after repeated washings and no apparent leaching was observed"}
    ]}
  ]
}
